Laboratory results from patent US20100184869A1, “METHOD AND KIT FOR DETERMINING SIRTUIN MODULATING AGENTS, SIRTUIN MODULATING PROCEDURE, SIRTUIN MODULATING COMPOUNDS AND COMPOSITIONS INCLUDING THE SAME” (priority 2008, published 2010).

System: SIRT1 gene expression
Assay: semi-quantitative RT-PCR of sirtuin mRNA/β-actin mRNA ratio in zebrafish tissues after resveratrol
Assay type: in vivo, zebrafish (Danio rerio)
Conditions: FIG. 3
Source text: On the Y axis, I is the rate of mRNA X, a is muscle and b is liver.
The method for determining modulating agents of sirtuin gene expression is comprised of the following stages: • a) contacting cells comprising at least on gene of the sirtuin family and the β-actin gene, with a modulating agent; • b) determining the relative abundance of mRNA of the sirtuin-family gene; • c) determining the relative abundance of the mRNA of the β-actin gene; and • d) determining the mRNA SIRTImRNA β-actin ratio.
The mapping of the pattern and levels of expression in each one of the eight genes related to zebrafish sirtuin was determined in eight tissues (spleen, gills, brain, heart, liver, female sexual organs and male sexual organs, skeletal muscle and kidneys), by way of the analysis of semi-quantitative RT-PCR comparing the relative abundance of mRNA of each one of the genes related to sirtuins with the mRNA of the gene codifying for β-actin (mean ±E.P.) (FIG. 2 and Table 2).

## Oc1ccc(/C=C/c2cc(O)cc(O)c2)cc1 [resveratrol, 3.4′,5-trihydroxy-trans-stilbene]
Zebrafish liver
  SIRT1 gene expression (mRNA SIRT/mRNA β-actin ratio): significant increase
Zebrafish skeletal muscle
  SIRT1 gene expression (mRNA SIRT/mRNA β-actin ratio): significant increase
